In the experiment the target is T1, recombinant human GR (Homo sapiens, UniProt P04150).
T1 construct: purchased Panvera/Invitrogen P2812 (kit P2893)
T1 sequence (P04150 1-777): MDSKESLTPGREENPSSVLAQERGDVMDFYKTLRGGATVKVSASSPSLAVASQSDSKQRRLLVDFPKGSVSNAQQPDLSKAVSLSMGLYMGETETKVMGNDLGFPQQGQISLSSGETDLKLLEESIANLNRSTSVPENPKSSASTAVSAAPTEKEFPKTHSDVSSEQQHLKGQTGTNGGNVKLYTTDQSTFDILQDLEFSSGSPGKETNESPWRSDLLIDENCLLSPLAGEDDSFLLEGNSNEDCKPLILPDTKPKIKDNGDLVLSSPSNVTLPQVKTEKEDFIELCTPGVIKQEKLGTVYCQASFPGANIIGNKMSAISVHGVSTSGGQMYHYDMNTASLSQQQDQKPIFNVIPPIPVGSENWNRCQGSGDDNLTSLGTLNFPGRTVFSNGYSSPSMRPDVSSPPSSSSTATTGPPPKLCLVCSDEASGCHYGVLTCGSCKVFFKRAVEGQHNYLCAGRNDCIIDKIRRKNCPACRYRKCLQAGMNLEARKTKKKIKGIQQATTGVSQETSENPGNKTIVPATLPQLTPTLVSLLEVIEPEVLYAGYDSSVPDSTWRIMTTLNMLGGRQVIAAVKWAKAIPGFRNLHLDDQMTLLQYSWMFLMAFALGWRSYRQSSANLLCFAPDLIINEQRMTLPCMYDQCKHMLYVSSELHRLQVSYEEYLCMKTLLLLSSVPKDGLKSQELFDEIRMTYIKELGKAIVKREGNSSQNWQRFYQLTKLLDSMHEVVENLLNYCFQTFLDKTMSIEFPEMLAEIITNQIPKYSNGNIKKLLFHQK
The experiment in a line: Human Glucocorticoid Receptor (GR) Assay, fluorescence polarization. The class given is binding. The settings on record: GS Red tracer, incubated 2 h at r.t., XLfit model 205, read-out: GRhuFL_FP_v2 Mean IC50. As for the experimental part:
Human Glucocorticoid Receptor (GR) Assay
The assay is based on a commercial kit from Panvera/Invitrogen (Part number P2893). The assay technology is fluorescence polarization. […] The GR and Stabilizing Peptide reagents are stored at −70° C. while the GS Red is stored at −20° C. Also included in the kit are 1M DTT (Panvera, Part number P2325, stored at −20° C.) and GR Screening buffer 10× (Panvera, Part number P2814, stored at −70° C. initially but once thawed stored at r.t.). Avoid repeated freeze/thaws for all reagents. The GR Screening buffer 10× comprises 100 mM potassium phosphate, 200 mM sodium molybdate, 1 mM EDTA and 20% DMSO.
0% control was 100% DMSO and 100% control was […] Dexamethasone. Background solution (8 μL; assay buffer 10×, Stabilizing Peptide, DTT and ice cold MQ water) was added to the background wells. GS Red solution (7 μL; assay buffer 10×, Stabilizing Peptide, DTT, GS Red and ice cold water) was added to all wells except background wells. GR solution (7 μL; assay buffer 10×, Stabilizing Peptide, DTT, GR and ice cold water) was added to all wells. The plate was sealed and incubated in a dark at r.t. for 2 h.

Each structure is given as a SMILES string.

Broadly, the IC50 is the midpoint of a concentration-inhibition curve. Turning to `CCCC(=O)N[C@@H](C)[C@H](Oc1ccc2c(cnn2-c2ccc(F)cc2)c1)c1ccccc1` [Example 41, N-[(1R,2S)-1-[1-(4-fluorophenyl)indazol-5-yl]oxy-1-phenyl-propan-2-yl]butanamide], the IC50 worked out at 2.6 nM. Next, `CNC(=O)C(=O)N[C@@H](C)[C@H](Oc1ccc2c(cnn2-c2ccc(F)cc2)c1)c1cccc(OC)c1` [Example 79, N-[(1R,2S)-1-[1-(4-Fluorophenyl)indazol-5-yl]oxy-1-(3-methoxyphenyl)propan-2-yl]-N′-methyl-oxamide]: 2.6 nM; `Cc1cnc(C(=O)N[C@@H](C)[C@H](Oc2ccc3c(cnn3-c3ccc(F)cc3)c2)c2cc(F)cc(Cl)c2)s1` [Example 205, N-[(1R,2S)-1-(3-chloro-5-fluoro-phenyl)-1-[1-(4-fluorophenyl)indazol-5-yl]oxy-propan-2-yl]-5-methyl-1,3-thiazole-2-carboxamide]: 6.6 nM. On to `COc1cccc([C@@H](Oc2ccc3c(cnn3-c3ccc(F)cc3)c2)[C@H](C)NC(=O)c2ccc(Br)s2)c1` [Example 272, 5-bromo-N-[(1R,2S)-1-[1-(4-fluorophenyl)indazol-5-yl]oxy-1-(3-methoxyphenyl)propan-2-yl]thiophene-2-carboxamide], for which the IC50 is 4.3 nM. Next, `COc1cccc([C@@H](Oc2ccc3c(cnn3-c3ccc(F)cc3)c2)[C@H](C)NC(=O)C(C)(F)F)c1` [Example 302, 2,2-difluoro-N-((1R,2S)-1-(1-(4-fluorophenyl)-1H-indazol-5-yloxy)-1-(3-methoxyphenyl)propan-2-yl)propanamide]: 3.2 nM; `Cc1cccc([C@@H](Oc2ccc3c(cnn3-c3ccc(F)cc3)c2)[C@H](C)NC(=O)c2ncc(C)s2)c1` [Example 207, N-[(1R,2S)-1-[1-(4-fluorophenyl)indazol-5-yl]oxy-1-(3-methylphenyl)propan-2-yl]-5-methyl-1,3-thiazole-2-carboxamide]: 8.8 nM. Next, `COc1ccc(F)cc1[C@@H](Oc1ccc2c(cnn2-c2ccc(F)cc2)c1)[C@H](C)NC(=O)C(C)(C)F` [Example 250, 2-fluoro-N-[(1R,2S)-1-(5-fluoro-2-methoxy-phenyl)-1-[1-(4-fluorophenyl)indazol-5-yl]oxy-propan-2-yl]-2-methyl-propanamide]: 6.9 nM; `COc1cccc([C@@H](Oc2ccc3c(cnn3-c3ccc(F)cc3)c2)[C@H](C)NC(=O)c2cc(C)n(C)n2)c1` [Example 287, N-[(1R,2S)-1-[1-(4-fluorophenyl)indazol-5-yl]oxy-1-(3-methoxyphenyl)propan-2-yl]-1,5-dimethyl-pyrazole-3-carboxamide]: 4.3 nM; `C[C@H](NC(=O)C(F)(F)F)[C@H](Oc1ccc2c(cnn2-c2ccc(CN3CCOCC3)cc2)c1)c1ccccc1` [Example 142, 2,2,2-trifluoro-N-((1R,2S)-1-(1-(4-(morpholinomethyl)phenyl)-1H-indazol-5-yloxy)-1-phenylpropan-2-yl)acetamide]: 5.6 nM. Next, `C[C@H](NC(=O)Cc1ccccc1)[C@H](Oc1ccc2c(cnn2-c2ccc(F)cc2)c1)c1ccccc1` [Example 33, N-[(1R,2S)-1-[1-(4-fluorophenyl)indazol-5-yl]oxy-1-phenyl-propan-2-yl]-2-phenyl-acetamide]: 18 nM; `Cc1cc(F)ccc1[C@@H](Oc1ccc2c(cnn2-c2ccc(F)cc2)c1)[C@H](C)NC(=O)C1(C)CC1` [Example 219, N-[(1R,2S)-1-(4-fluoro-2-methyl-phenyl)-1-[1-(4-fluorophenyl)indazol-5-yl]oxy-propan-2-yl]-1-methyl-cyclopropane-1-carboxamide]: 2.8 nM.

`COc1cccc([C@@H](Oc2cc3cnn(-c4ccc(F)cc4)c3cc2C)[C@H](C)NC(=O)C(F)(F)F)c1` [Example 65, 2,2,2-Trifluoro-N-[(1R,2S)-1-[1-(4-fluorophenyl)-6-methyl-indazol-5-yl]oxy-1-(3-methoxyphenyl)propan-2-yl]acetamide]: the IC50 worked out at 3.8 nM. Next, `C[C@H](NC(=O)C(C)(C)CO)[C@H](Oc1ccc2c(cnn2-c2ccc(F)cc2)c1)c1cccc(Cl)c1` [Example 255, N-[(1R,2S)-1-(3-chlorophenyl)-1-[1-(4-fluorophenyl)indazol-5-yl]oxy-propan-2-yl]-3-hydroxy-2,2-dimethyl-propanamide]: 5.1 nM; `COc1cccc([C@@H](Oc2ccc3c(cnn3-c3ccc(F)cc3)c2)[C@H](C)NC(=O)[C@@H](C)O)c1` [Example 57, (2R)-N-[(1R,2S)-1-[1-(4-fluorophenyl)indazol-5-yl]oxy-1-(3-methoxyphenyl)propan-2-yl]-2-hydroxy-propanamide]: 4.1 nM; `COc1ccc([C@@H](Oc2ccc3c(cnn3-c3ccc(F)cc3)c2)[C@H](C)NC(=O)C(C)(F)F)cc1F` [Example 231, 2,2-difluoro-N-[(1R,2S)-1-(3-fluoro-4-methoxy-phenyl)-1-[1-(4-fluorophenyl)indazol-5-yl]oxy-propan-2-yl]propanamide]: 5.1 nM. For `C[C@H](NC(=O)c1ccco1)[C@H](Oc1ccc2c(cnn2-c2cccnc2)c1)c1ccccc1` [Example 114, N-[(1S,2R)-1-Methyl-2-phenyl-2-{[1-(3-pyridyl)-1H-indazol-5-yl]oxy}ethyl]furan-2-carboxamide], the IC50 is 3.2 nM.

For `Cc1ccc([C@@H](Oc2ccc3c(cnn3-c3ccc(F)cc3)c2)[C@H](C)NC(=O)C(C)(C)F)cc1F` [Example 242, 2-fluoro-N-[(1R,2S)-1-(3-fluoro-4-methyl-phenyl)-1-[1-(4-fluorophenyl)indazol-5-yl]oxy-propan-2-yl]-2-methyl-propanamide], the IC50 was 5.5 nM. In the case of `COc1ccc([C@@H](Oc2ccc3c(cnn3-c3ccc(F)cc3)c2)[C@H](C)NC(=O)C(F)(F)F)cc1F` [Example 264, 2,2,2-trifluoro-N-[(1R,2S)-1-(3-fluoro-4-methoxy-phenyl)-1-[1-(4-fluorophenyl)indazol-5-yl]oxy-propan-2-yl]acetamide] it was 6.5 nM; in that of `C[C@H](NC(=O)c1ccco1)[C@H](Oc1ccc2c(cnn2-c2ccncc2)c1)c1ccccc1` [Example 115, N-[(1S,2R)-1-Methyl-2-phenyl-2-{[1-(4-pyridyl)-1H-indazol-5-yl]oxy}ethyl]furan-2-carboxamide], 3.8 nM. In the case of `Cc1cccc([C@@H](Oc2ccc3c(cnn3-c3ccc(F)cc3)c2)[C@H](C)NC(=O)C(C)(F)F)c1` [Example 239, 2,2-difluoro-N-[(1R,2S)-1-[1-(4-fluorophenyl)indazol-5-yl]oxy-1-(3-methylphenyl)propan-2-yl]propanamide] it was 9 nM; in that of `CCC(=O)N[C@@H](C)[C@H](Oc1ccc2c(cnn2-c2ccc(F)cc2)c1)c1ccc(C(F)(F)F)cc1` [Example 61, N-[(1R,2S)-1-[1-(4-fluorophenyl)indazol-5-yl]oxy-1-[4-(trifluoromethyl)phenyl]propan-2-yl]propanamide], 3.3 nM; in that of `Cc1cc(F)ccc1[C@@H](Oc1ccc2c(cnn2-c2ccc(F)cc2)c1)[C@H](C)NC(=O)C(F)(F)F` [Example 156, 2,2,2-trifluoro-N-[(1R,2S)-1-(4-fluoro-2-methyl-phenyl)-1-[1-(4-fluorophenyl)indazol-5-yl]oxy-propan-2-yl]acetamide], 4.2 nM.

For the origin of these results see patent US8143290B2, “Chemical compounds 572” (AstraZeneca AB, priority 2006, dated 2012).
